Source: ChEMBL document CHEMBL3044974, “Design, synthesis, insecticidal activity and structure-activity relationship of 3,3-dichloro-2-propenyloxy-containing phthalic acid diamide structures” (2012)

Experiments:
Type in all cases: functional
Plutella xylostella [1] = experiment: Insecticidal activity against Plutella xylostella (diamondback moth) third-instar larvae reared on 100 ug/mL compound pre-treated cabbage leaf disks assessed as insect mortality measured after 2 days post compound treatment by leaf dipping method
Plutella xylostella [2] = experiment: Insecticidal activity against Plutella xylostella (diamondback moth) third-instar larvae reared on 100 ug/mL compound pre-treated cabbage leaf disks assessed as insect mortality measured after 3 days post compound treatment by leaf dipping method
Plutella xylostella [3] = experiment: Insecticidal activity against Plutella xylostella (diamondback moth) third-instar larvae reared on 10 ug/mL compound pre-treated cabbage leaf disks assessed as insect mortality measured after 2 days post compound treatment by leaf dipping method
Plutella xylostella [4] = experiment: Insecticidal activity against Plutella xylostella (diamondback moth) third-instar larvae reared on 10 ug/mL compound pre-treated cabbage leaf disks assessed as insect mortality measured after 3 days post compound treatment by leaf dipping method

Compound | mortality (Plutella xylostella [1]) | mortality (Plutella xylostella [2]) | mortality (Plutella xylostella [3]) | mortality (Plutella xylostella [4])
CC(C)(C)NC(=O)c1c(I)cccc1C(=O)Nc1ccc(OCC=C(Cl)Cl)cc1C(F)(F)F | 65% | 90% |  | 
CC(C)(CS(C)(=O)=O)NC(=O)c1c(I)cccc1C(=O)Nc1ccc(OCC=C(Cl)Cl)cc1Cl | 75% | 100% | 0% | 20%
COCC(C)(C)NC(=O)c1c(I)cccc1C(=O)Nc1ccc(OCC=C(Cl)Cl)c(Cl)c1 | 42% | 61% |  | 
COCC(C)(C)NC(=O)c1c(I)cccc1C(=O)Nc1ccc(OCC=C(Cl)Cl)cc1F | 47% | 61% |  | 
CC(C)(C)NC(=O)c1c(I)cccc1C(=O)Nc1ccc(OCC=C(Cl)Cl)c(C(F)(F)F)c1 | 0% | 8% |  | 
CC(C)(C)NC(=O)c1c(I)cccc1C(=O)Nc1ccc(OCC=C(Cl)Cl)cc1F | 81% | 100% | 0% | 0%
CC(C)(CS(C)(=O)=O)NC(=O)c1c(I)cccc1C(=O)Nc1ccc(OCC=C(Cl)Cl)cc1 | 15% | 60% |  | 
Cc1cc(NC(=O)c2cccc(I)c2C(=O)NC(C)(C)CS(C)(=O)=O)ccc1OCC=C(Cl)Cl | 8% | 19% |  | 
CSCC(C)(C)NC(=O)c1c(I)cccc1C(=O)Nc1ccc(OCC=C(Cl)Cl)cc1 | 15% | 45% |  | 
CSCC(C)(C)NC(=O)c1c(I)cccc1C(=O)Nc1ccc(OCC=C(Cl)Cl)cc1C(F)(F)F | 57% | 62% |  | 
CSCC(C)(C)NC(=O)c1c(I)cccc1C(=O)Nc1ccc(OCC=C(Cl)Cl)cc1Cl | 100% |  | 0% | 43%
CSCC(C)(C)NC(=O)c1c(I)cccc1C(=O)Nc1ccc(OCC=C(Cl)Cl)c(C(F)(F)F)c1 | 0% | 0% |  | 
COCC(C)(C)NC(=O)c1c(I)cccc1C(=O)Nc1ccc(OCC=C(Cl)Cl)c(C(F)(F)F)c1 | 42% | 44% |  | 
CC(C)(C)NC(=O)c1c(I)cccc1C(=O)Nc1ccc(OCC=C(Cl)Cl)cc1 | 39% | 78% |  | 
CC(C)(C)NC(=O)c1c(I)cccc1C(=O)Nc1ccc(OCC=C(Cl)Cl)c(Cl)c1 | 57% | 76% |  | 
Cc1cc(NC(=O)c2cccc(I)c2C(=O)NC(C)(C)C)ccc1OCC=C(Cl)Cl | 0% | 25% |  | 
COCC(C)(C)NC(=O)c1c(I)cccc1C(=O)Nc1ccc(OCC=C(Cl)Cl)cc1C | 47% | 72% |  | 

Compound | mortality (Plutella xylostella [1]) | mortality (Plutella xylostella [2]) | mortality (Plutella xylostella [3]) | mortality (Plutella xylostella [4])
CSCC(C)(C)NC(=O)c1c(I)cccc1C(=O)Nc1ccc(OCC=C(Cl)Cl)cc1C | 90% | 95% | 10% | 19%
Cc1cc(OCC=C(Cl)Cl)ccc1NC(=O)c1cccc(I)c1C(=O)NC(C)(C)C | 69% | 100% | 32% | 58%
FC(F)(F)c1ccc(OCCCOc2c(Cl)cc(OCC=C(Cl)Cl)cc2Cl)nc1 [PYRIDALYL] | 100% |  | 13% | 37%
CSCC(C)(C)NC(=O)c1c(I)cccc1C(=O)Nc1ccc(OCC=C(Cl)Cl)c(Cl)c1 | 38% | 81% |  | 
CC(C)(CS(C)(=O)=O)NC(=O)c1c(I)cccc1C(=O)Nc1ccc(OCC=C(Cl)Cl)c(Cl)c1 | 24% | 48% |  | 
COCC(C)(C)NC(=O)c1c(I)cccc1C(=O)Nc1ccc(OCC=C(Cl)Cl)c(C)c1 | 42% | 70% |  | 
Cc1cc(C(F)(C(F)(F)F)C(F)(F)F)ccc1NC(=O)c1cccc(I)c1C(=O)NC(C)(C)CS(C)(=O)=O [FLUBENDIAMIDE] | 100% |  | 67% | 100%
CSCC(C)(C)NC(=O)c1c(I)cccc1C(=O)Nc1ccc(OCC=C(Cl)Cl)c(C)c1 | 0% | 10% |  | 
CC(C)(CS(C)(=O)=O)NC(=O)c1c(I)cccc1C(=O)Nc1ccc(OCC=C(Cl)Cl)c(C(F)(F)F)c1 | 0% | 0% |  | 
CC(C)(CS(C)(=O)=O)NC(=O)c1c(I)cccc1C(=O)Nc1ccc(OCC=C(Cl)Cl)cc1F | 55% | 90% |  | 
COCC(C)(C)NC(=O)c1c(I)cccc1C(=O)Nc1ccc(OCC=C(Cl)Cl)cc1Cl | 54% | 63% |  | 
CC(C)(CS(C)(=O)=O)NC(=O)c1c(I)cccc1C(=O)Nc1ccc(OCC=C(Cl)Cl)cc1C(F)(F)F | 25% | 69% |  | 
COCC(C)(C)NC(=O)c1c(I)cccc1C(=O)Nc1ccc(OCC=C(Cl)Cl)cc1C(F)(F)F | 32% | 44% |  | 
CC(C)(C)NC(=O)c1c(I)cccc1C(=O)Nc1ccc(OCC=C(Cl)Cl)cc1Cl | 90% | 100% | 65% | 91%
CSCC(C)(C)NC(=O)c1c(I)cccc1C(=O)Nc1ccc(OCC=C(Cl)Cl)cc1F | 58% | 100% | 0% | 0%
Cc1cc(OCC=C(Cl)Cl)ccc1NC(=O)c1cccc(I)c1C(=O)NC(C)(C)CS(C)(=O)=O | 76% | 81% |  | 
